According to US8314068B2, “P2X7 inhibition of epithelial cancers and papillomas” (University Hospitals of Cleveland, priority 2009, dated 2012):

Tests used:
[1] = test system: DMBA/TPA-induced skin papillomas and squamous spindle-cell carcinomas; test: DMBA/TPA mouse skin papilloma and cancer model, 28 weeks (Experiment-4); format: in vivo
[2] = test system: P2X7−/−Pf and P2X7−/−GSK keratinocytes; test: Apoptosis in keratinocytes of P2X7-receptor-deficient mice; format: cell-based, mouse; conditions: 100 μM BzATP
Method: FIG. 16C: BzATP time-response effect in cultured mouse normal keratinocytes (wild-type, C57B1; filled triangles), or in keratinocytes obtained from C57B1 background P2X7-deficient mice (P2X7^−/−Pfizer; empty circles; or P2X7^−/−GSK; filled circles). Values are means (±SD) of 3 experiments for each condition. Changes in apoptosis were determined using cell-death detection ELISA.
Apoptosis of cultured mouse keratinocytes was quantified in terms of percent solubilized DNA, or by using the commercial cell-death detection ELISA kit (Roche Applied Science, Nutley, N.J.). Wang et al., “P2X7-receptor mediated apoptosis of human cervical epithelial cells” Am J Physiol 2004, 287:C1349-C1358; and Feng et al., “A truncated P2X7 receptor variant (P2X7-j) endogenously expressed in cervical cancer cells antagonizes the full-length P2X7 receptor through hetero-oligomerization” J Biol Chem 2006, 281:17228-17237, respectively.
The experiments utilized primary cultures of epidermal keratinocytes generated from 6-8 weeks old wild-type C57B1 mice (Charles River, Wilmington, Mass.); from P2X7^−/−Pfizer mice constructed by deletion of amino acids 506-532 of the C-terminus (Solle et al., “Altered cytokine production in mice lacking P2X(7) receptors” J Biol Chem 2001, 276:125-32), or from P2X7^−/−GSK mice, which have a lacZ gene inserted at the beginning of exon 1, resulting knockout of the receptor. […]

Q: How did the “inhibition of papilloma and skin cancer formation” value ([1]; 1 μg/cm^2 BzATP applied locally twice weekly) turn out when `Nc1ncnc2c1ncn2[C@@H]1O[C@H](COP(=O)(O)OP(=O)(O)OP(=O)(O)O)[C@@H](OC(=O)c2ccc(C(=O)c3ccccc3)cc2)[C@H]1O` [BzATP, 3′-O-(4-benzoylbenzoyl)adenosine triphosphate] was run?
A: The value was 50%.

Q: And the “effect on P2X7 receptor expression in skin cancers” value ([1]; immunoreactivity in cross sections)?
A: Its value is “did not effect P2X7 receptor expression in cancer cells”.

Q: What about the “overall survival rates versus DMBA/TPA group” value ([1]; log-rank test) of the same molecule?
A: Its value is “did not differ statistically”.

Q: What about the “TUNEL staining in papillomas and cancer tissues versus DMBA/TPA group” value ([1]; mouse, in vivo) of the same molecule?
A: The value was “more intense”.

Q: What about the “development of cancerous lesions (time-to-event) versus DMBA/TPA group” value ([1]; mouse, in vivo) of the same molecule?
A: The value was “significantly slower and lower”.

Q: And the “proportion of living animals with cancerous lesions >200 mm^3, difference to DMBA/TPA group” value ([1]; mouse, in vivo)?
A: Its value is “did not reach statistical significance”.

Q: What about the “proportion of living animals having a papilloma” value ([1]; week 5, DMBA/TPA+BzATP group) of the same molecule?
A: The value was 48±12%.

Q: And the “papillomas per animal (mean±SD)” value ([1]; week 10, DMBA/TPA+BzATP group)?
A: Its value is 1.2±0.4.

Q: And the “mean total papillomas size per animal (mean±SD)” value ([1]; week 12, DMBA/TPA+BzATP group)?
A: Its value is 3.4±1.0 mm^3.

Q: What about the “proportion of animals with cancers” value ([1]; week 14, mice co-treated with BzATP) of the same molecule?
A: Its value is 50%.

Q: And the “proportion of living animals with cancerous lesions” value ([1]; week 28, DMBA/TPA+BzATP group)?
A: Its value is 43±9%.

Q: What about the “proportion of living animals with cancerous lesions >10 mm^3” value ([1]; week 28, DMBA/TPA+BzATP group) of the same molecule?
A: The value was 16±4%.

Q: And the “lowering of incidence of cancerous lesions” value ([1]; week 28, co-treated with BzATP)?
A: Its value is “about 50%”.

Q: And the “lowering of incidence of papillomas” value ([1]; weeks 0-12, co-treated with BzATP)?
A: Its value is “about 50%”.

Q: What about the “effect on number of cancerous lesions per animal” value ([1]; weeks 14-28) of the same molecule?
A: Its value is “little effect”.

Q: And the induction of apoptosis [2]?
A: The induction of apoptosis was “failed to induce apoptosis”.
